The values below come from article PMC2974656, “Selective killing of human immunodeficiency virus infected cells by non-nucleoside reverse transcriptase inhibitor-induced activation of HIV protease” (Retrovirology, 2010).

In general, CC50 refers to the concentration that lowers cell viability or growth by half.

Data set [1] deals with intracellular Gag processing by HIV PR. The format is cell-based, HIV-1. The conditions noted are these: 293T cells, 44 h post transfection. The procedure: In previous studies, high concentrations of NNRTI (5 μM) were required to observe NNRTI mediated activation of intracellular HIV PR activity. […]. Towards this end, we developed a biochemical assay for gel independent quantitation of intracellular Gag processing by HIV PR in the context of a virus producing cell. We had previously shown that additional protein domains, consisting of small epitope tags or even the 27 kDa green fluorescent protein (EGFP), can be inserted between the MA and CA domains of the Gag and Gag-Pol polyproteins without affecting polyprotein production or processing by HIV PR [36]. Based on this, we designed a HIV reporter construct which contained a small N-terminal fragment ('alpha peptide') of Escherichia coli beta-galactosidase (β-Gal), flanked by two HIV PR recognition sites, between the MA and CA coding sequences of Gag (Figure 1A). […] This so called alpha complementation principle can be exploited for use in mammalian cells and has been employed for the establishment of various cell based biochemical assay systems. We reasoned that embedding of the small alpha peptide within the multi-domain polyproteins Gag or Gag-Pol, respectively, should impair its productive association with the omega subunit, while proteolytic release of the alpha peptide from the polyprotein by PR would allow the formation of enzymatically active β-Gal. This should allow us to monitor intracellular Gag and Gag-Pol processing through increased β-Gal activity.
Reconstituted β-Gal activity in cell lysates was measured by cleavage of the chromogenic substrate CPRG [42] as described in Methods.
The activity of β-Gal in cell lysates from transfected 293T cells was measured by enzymatic cleavage of the chromogenic β-Gal substrate chlorphenolred-β-D-galactopyranoside (CPRG, Roche; [42]). At 44 h post transfection, cells were briefly rinsed with PBS and suspended in reporter gene assay lysis buffer (Roche, 600 μl per 6-well dish) supplemented with a protease inhibitor mix (Roche). Cell suspensions were incubated for 10 min at room temperature and cell debris was subsequently removed by brief centrifugation. Five μl of supernatant were diluted in 96-well plates with 95 μl CPRG reaction buffer (50 mM potassium phosphate, pH 7.5, 1 mM MgCl2) and pre-warmed for 5 min to 37°C. 100 μl of pre-warmed reaction mix (100 μM CPRG in CPRG reaction buffer supplemented with protease inhibitor cocktail and 40 μM β-mercaptoethanol) were added and β-Gal mediated cleavage of CPRG was monitored by recording absorption at 592 nm every 2 min for 20 min at 37°C using a TECAN Safire multi-well reader. OD592 values were plotted over time and relative reaction rates (OD592/min) were determined from the initial linear velocities.

Data set [2] deals with MT4-LTR-EGFP-IIIB HIV-1 producing cells. In words: in vitro. The format is cell-based. The procedure: The cytotoxicity of inhibitors was determined in parallel on MT4-CMV-EGFP control cells and on MT4-LTR-EGFP-IIIB virus producing cells, respectively.

On to `NS(=O)(=O)c1ccc(NC(=O)CSc2nnc(Br)n2-c2ccc(C3CC3)c3ccccc23)c(Cl)c1` [VRX-480773], for which the “Concentration showing strong β-Gal activity enhancement” value in data set [1] is ~ 250 nM. Also, the CC50 in data set [2] (4 days, no DRV, mean ± SD, tested up to 10 μM, read-out: Cytotoxicity on MT4-LTR-EGFP-IIIB HIV-1 producing cells CC50) came out at 680 ± 340 nM. Moreover, the “Cytotoxicity on MT4-LTR-EGFP-IIIB cells, in words” value in data set [2] (summary of Table 1) is recorded as “submicromolar range”.
